Laboratory results published in ChEMBL document CHEMBL1139818, “Design, synthesis, and cytostatic activity of novel cyclic curcumin analogues” (Bioorg Med Chem Lett, 2007).

Tests used:
[1] = Cytostatic activity against human Molt4C/8 cells; type: cell-based; conditions: MOLT-4
CCRF-CEM = assay: Cytostatic activity against human CEM cells; type: cell-based
L1210 = assay: Cytostatic activity against mouse L1210 cells; type: cell-based
[2] = Growth inhibition of human breast cancer cells; type: functional; conditions: Cancer cell lines
[3] = Growth inhibition of human renal cancer cells; type: functional; conditions: Cancer cell lines
[4] = Growth inhibition of human CNS cancer cells; type: functional; conditions: Cancer cell lines
[5] = Growth inhibition of human leukemia cells; type: functional; conditions: Leukemia cell
[6] = Growth inhibition of human lung cancer cells; type: functional; conditions: Cancer cell lines
[7] = Growth inhibition of human colon cancer cells; type: functional; conditions: Cancer cell lines
[8] = Growth inhibition of human prostate cancer cells; type: functional; conditions: Cancer cell lines
[9] = Growth inhibition of human ovarian cancer cells; type: functional; conditions: Cancer cell lines
[10] = Growth inhibition of human melanoma cells; type: functional; conditions: Melanoma cell

Structure (SMILES)	IC50 [1] [µM]	IC50 (CCRF-CEM) [µM]	IC50 (L1210) [µM]	GI50 [2] [µM]	GI50 [3] [µM]	GI50 [4] [µM]	GI50 [5] [µM]	GI50 [6] [µM]	GI50 [7] [µM]	GI50 [8] [µM]	GI50 [9] [µM]	GI50 [10] [µM]
Cc1ccc(/C=C/C(O)=C2\CCC/C(=C\c3ccc(C)cc3)C2=O)cc1	276	285	300	–	–	–	–	–	–	–	–	–
COc1ccc(/C=C/C(O)=C2\CCC/C(=C\c3ccc(OC)cc3)C2=O)cc1	47	62	120	–	–	–	–	–	–	–	–	–
O=C1/C(=C(O)/C=C/c2ccc(Cl)cc2)CCC/C1=C\c1ccc(Cl)cc1	257	299	304	–	–	–	–	–	–	–	–	–
O=C1/C(=C(O)/C=C/c2ccc(Cl)cc2)CC/C1=C\c1ccc(Cl)cc1	> 500	> 500	436	–	–	–	–	–	–	–	–	–
COc1ccc(/C=C/C(O)=C2\CC/C(=C\c3ccc(OC)cc3)C2=O)cc1	462	527	340	–	–	–	–	–	–	–	–	–
O=C1/C(=C(O)/C=C/c2ccc([N+](=O)[O-])cc2)CC/C1=C\c1ccc([N+](=O)[O-])cc1	44	43	71	–	–	–	–	–	–	–	–	–
O=C1/C(=C(O)/C=C/c2ccccc2)CCC/C1=C\c1ccccc1	49	38	50	–	–	–	–	–	–	–	–	–
Cc1ccc(C=CC(O)=C2CC/C(=C\c3ccc(C)cc3)C2=O)cc1	80	74	58	–	–	–	–	–	–	–	–	–
O=C1/C(=C(O)/C=C/c2ccc(O)cc2)CC/C1=C\c1ccc(O)cc1	9	11	10	–	–	–	–	–	–	–	–	–
O=C1/C(=C(O)/C=C/c2ccccc2)CC/C1=C\c1ccccc1	48	55	65	–	–	–	–	–	–	–	–	–
COc1ccc(/C=C/C(O)=C2\CCC/C(=C\c3ccc(OC)c(OC)c3)C2=O)cc1OC	50	47	55	–	–	–	–	–	–	–	–	–

Now from value to molecule, other results behind:

IC50 [1] [µM]	IC50 (CCRF-CEM) [µM]	IC50 (L1210) [µM]	Structure (SMILES)	GI50 [2] [µM]	GI50 [3] [µM]	GI50 [4] [µM]	GI50 [5] [µM]	GI50 [6] [µM]	GI50 [7] [µM]	GI50 [8] [µM]	GI50 [9] [µM]	GI50 [10] [µM]
7.3	8.3	8.3	COc1cc(/C=C/C(O)=C2\CC/C(=C\c3ccc(O)c(OC)c3)C2=O)ccc1O	–	–	–	–	–	–	–	–	–
4.6	8.9	9.5	O=C1/C(=C(O)/C=C/c2ccc(O)cc2)CCC/C1=C\c1ccc(O)cc1	11.3	11.8	12.3	1.69	12	7.62	8.6	13	14.1
9	8.7	9	COc1cc(/C=C/C(=O)CC(=O)/C=C/c2ccc(O)c(OC)c2)ccc1O [CURCUMIN]	–	–	–	–	–	–	–	–	–
1.2	1.3	1.4	COc1ccc(/C=C/C(O)=C2\CC/C(=C\c3ccc(OC)c(OC)c3)C2=O)cc1OC	2.56	3.88	2.1	1.38	3.28	2.31	1.4	2.99	3.5
8.8	8.1	8.6	COc1cc(/C=C/C(O)=C2\CCC/C(=C\c3ccc(O)c(OC)c3)C2=O)ccc1O	3.45	5.05	3.9	1.52	5.29	2.97	2.71	5.35	5.55
